According to BindingDB's records for patent US20250282741 (Innovo Therapeutics, 2025):

Each compound was assayed against T1, Serpin H1 (Human, UniProt P50454) (assay: Inhibition of HSP47 Function).
T1 sequence (P50454 whole entry): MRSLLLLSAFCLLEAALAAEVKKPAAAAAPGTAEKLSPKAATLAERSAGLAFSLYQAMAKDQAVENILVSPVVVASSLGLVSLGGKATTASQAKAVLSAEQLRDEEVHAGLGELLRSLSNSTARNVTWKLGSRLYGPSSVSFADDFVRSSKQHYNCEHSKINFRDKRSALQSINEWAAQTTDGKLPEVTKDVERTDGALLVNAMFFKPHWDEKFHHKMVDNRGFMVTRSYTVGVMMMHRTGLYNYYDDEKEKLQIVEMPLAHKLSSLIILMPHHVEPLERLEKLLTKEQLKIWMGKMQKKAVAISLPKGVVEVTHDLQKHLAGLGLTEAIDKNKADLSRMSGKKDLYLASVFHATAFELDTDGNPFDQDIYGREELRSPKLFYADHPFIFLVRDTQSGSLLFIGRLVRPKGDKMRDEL
Description: Fibrils were formed by adding 180 ul of phosphate-buffered saline (PBS, pH 7.4) solution to 20 ul of collagen dissolved in acidic solution (collagen solution, UK), which was measured at a wavelength of 340 nm. HSP47 (GenScript US) was added at a concentration of 9.45 μg/ml to assess HSP47 activity as the degree to which it inhibits fibril formation. Test compound was added with concentrations of 100 μM to 1 μM and the inhibitory activity of HSP47 was calculated as a percentage or EC50.
In the case of CCc1oc2c(Cl)cccc2c1C(=O)c1cc(I)c(O)c(I)c1 [US20250282741, Example 14], the EC50 is reported as 15.9 µM. In the case of CCc1oc2cc(Cl)ccc2c1C(=O)c1cc(Br)c(O)c(Br)c1 [US20250282741, Example 12], the EC50 is reported as 73.1 µM. For CCc1oc2cc(C(F)(F)F)ccc2c1C(=O)c1cc(Br)c(O)c(Br)c1 [US20250282741, Example 22], the EC50 was 32.1 µM.
